# From US9980943B2, “Methods of treating muscular dystrophy” (BOARD OF REGENTS OF THE NEVADA SYSTEM OF HIGHER EDUCATION, …, priority 2013, dated 2018)
# Read-outs that look alike come from different tables or passages of the source.
# Tested on: α7 integrin (LacZ reporter in α7LacZ+/− myoblasts)
# Assay: qHTS of the LOPAC library and MLSMR (online screen, α7LacZ+/− myoblasts)
# Settings: for activation at 0.307 µM / activation at 1.53 µM / activation at 7.66 µM / activation at 38.3 µM / Emax / EC50: Mus musculus, Myoblast; for activation at 0.307 µM: read-out: Activity at 0.307 uM [%] **; for activation at 1.53 µM: read-out: Activity at 1.530 uM [%] **; for activation at 7.66 µM: read-out: Activity at 7.660 uM [%] **; for activation at 38.3 µM: read-out: Activity at 38.30uM [%] **; for EC50: read-out: Fit LogAC50 (converted)
# [1] = 48 h, read-out: Fit Infinite Activity [%]
# Procedure: A total of 250 α7LacZ^+/− myoblasts at passage 13 were dispensed using a multidrop (Thermo) into black low base tissue culture treated microclear aurora plates in 6 μl media containing DMEM without phenol, 5% FBS, 1× GluMax and 1× Penicillin/Streptomycin. […] Compounds were then dispensed using a Kalypsys pintool to deliver 23 nl/well compounds in DMSO (diluted into 6 μl resulting in a 1:260 dilution of compound). […] After incubation with compound, 5 μl of the media was aspirated using the Kalypsys washer/dispenser and 3 μl of the Mammalian Protein Extraction Reagent (MPER) lysis buffer (Thermo Fisher) was added. […] The plates were then incubated for 10 minutes at room temperature.
# The assay was adapted for a high-throughput screen with the fully automated Kalypsys robotic system using 1536 well plates at NCGC.
SMILES,activation at 0.307 µM (48 h),activation at 1.53 µM (48 h),activation at 7.66 µM (48 h),activation at 38.3 µM (48 h),Emax [1],EC50,Curve Description,Score,Emax (read-out: Max Response [%])
COc1ccc(NC(=O)c2cccc(N3C(=O)c4ccc(C(=O)Nc5ccc(OC)c(O)c5)cc4C3=O)c2)cc1O [Compound 13],-24.8%,-27.4%,80.7%,95.6%,94.7%,4.47 µM,,,
CCOc1ccc(S(=O)(=O)NCCC(=O)NCC(c2cccs2)N2CCOCC2)cc1 (stereo not shown) [Compound 14],-21.6%,3.54%,59.1%,61.7%,62.8%,2.24 µM,,,
CCOc1ccccc1NC(=O)c1cccc2c1C(=O)N(C1CCCCC1)C2 [Compound 15],-13.7%,4.71%,58%,73.6%,75.3%,3.16 µM,,,
NC(=O)c1nsc(C(=O)N(c2ccccc2)C(C(=O)NCc2ccc(F)cc2)c2ccc(O)cc2)c1N (stereo not shown) [Compound 16],-30.2%,5.64%,58.2%,75.2%,77.5%,2.24 µM,,,
CCc1ccc(N(C(=O)c2snc(C(N)=O)c2N)C(C(=O)NC2CCCC2)c2ccco2)cc1 (stereo not shown) [Compound 17],-18.3%,9.37%,52.7%,67.6%,71.4%,2.51 µM,,,
COC(=O)C(=O)C/C(=N/Nc1ncnc2ccccc12)c1ccc(Cl)cc1 [Compound 18],7.75%,30.6%,358%,,,10 µM,,,
Cc1cc(NC(=O)c2ccc(Cl)cc2Cl)no1 [Compound 19],-20.1%,15%,43.9%,52.1%,52.7%,1.41 µM,,,
CCOC(=O)Cc1csc(NC(=S)NC(=O)c2cc(OC)c(OC)c(OC)c2)n1 [Compound 20],-18.1%,-4.46%,69.3%,82.9%,83.9%,3.55 µM,,,
CC(C)CC1NC(=O)N(CC(=O)N2c3ccccc3NC(=O)C2(C)C)C1=O (stereo not shown) [Compound 21],2.86%,0%,75.6%,93.3%,93.5%,5.62 µM,,,
COCCSc1ccccc1C(=O)Nc1cc(C)cc(C)c1 [Compound 22],0%,0%,78.3%,82.9%,83.1%,4.47 µM,,,
O=c1oc2c(-c3cccc(F)c3)cc(O)cc2s1 [Compound 23],12.6%,18.8%,87.3%,98.9%,98.5%,3.98 µM,,,
Cc1ccc(C2Nc3cccc4cccc(c34)N2)s1 [Compound 24],5.89%,19.6%,73.1%,81.3%,82.7%,3.16 µM,,,
COc1cc(=O)n(C)c2ccccc12 [Compound 25],-16.5%,11.1%,54.5%,63%,64.1%,2.24 µM,,,
CCOC(=O)c1sc(=N)n(-c2ccc(OC)cc2)c1C [Compound 26],-25.4%,4.59%,41.9%,56.1%,59.6%,2 µM,,,
Cc1ccc(OCC(=O)N2CCN(S(=O)(=O)c3ccc4c(c3)OCCO4)CC2)c(C)c1 [Compound 27],-26.2%,3.31%,51.6%,53.8%,55%,2 µM,,,
CC(NC(=O)c1cn(C)c2ccc(S(=O)(=O)N3CCCC3)cc2c1=O)c1ccccc1 (stereo not shown) [Compound 28],-36%,-20.6%,48.9%,54.7%,55.3%,2.82 µM,,,
Cc1cc(NC(=O)CCC(=O)N(Cc2cccnc2)C(C(=O)NC(C)(C)C)c2ccccc2Cl)no1 (stereo not shown) [Compound 29],-23.8%,-13.5%,36%,54.9%,55.7%,3.98 µM,,,
COc1cc(/C=C2/C(=N)N3C(SC)=NSC3=NC2=O)ccc1OC(=O)c1ccco1 [Compound 30],-18.3%,-9.07%,55.5%,73.4%,73.6%,3.98 µM,,,

SMILES,activation at 0.307 µM (48 h),activation at 1.53 µM (48 h),activation at 7.66 µM (48 h),activation at 38.3 µM (48 h),Emax [1],EC50,Curve Description,Score,Emax (read-out: Max Response [%])
COc1ccccc1CNc1cc(C)ccn1 [Compound 31],-22.9%,-0.943%,53.2%,62.3%,62.2%,2.51 µM,,,
Cc1nn(C(C)(C)C)c(C)c1/C=N/OC(=O)Nc1ccc(Cl)c(Cl)c1 [Compound 32],-28.1%,-9.46%,51%,59.8%,60.2%,2.82 µM,Complete,,
CCOC(=O)C1CCCN(C(=O)CNS(=O)(=O)c2ccc(Br)s2)C1 (stereo not shown) [Compound 33],-41.8%,-14.3%,17%,31.1%,33.2%,2 µM,,,
CCCCNC(=O)CSc1nnc(Cc2ccc(Cl)c(Cl)c2)c(O)n1 [Compound 34],9.41%,43.8%,74.3%,75.4%,76.4%,1.41 µM,,,
O=Cc1ccc(C(=O)OCC(=O)N2CCCC2)cc1 [Compound 35],0%,12%,71.5%,71.8%,72.6%,2.51 µM,,,
CC(C)/N=C(\S)NN=C1CCCCCCCCCCC1 [Compound 36],7.67%,25.7%,65.1%,78.6%,81.2%,3.16 µM,,,
COc1ccc(S(=O)(=O)N(NC2=NS(=O)(=O)c3ccccc32)C(=O)C(C)C)cc1 [Compound 37],-1.77%,15.3%,70.7%,72.9%,74.5%,2.51 µM,,,
C/C(CC(=O)Nc1ccc(Cl)c(C(F)(F)F)c1)=N\NC(=O)c1cnccn1 [Compound 38],-0.625%,-2.88%,69.2%,72.7%,73.5%,4.47 µM,,,
Cc1ccc(-c2onc3ccc(C(=O)/C=C/N(C)C)cc23)cc1 [Compound 39],-7.76%,5.51%,52.9%,69.1%,69.5%,3.55 µM,,,
Cc1cccn2c(=O)c3cc(C(=O)NC4CCCCC4)n(C)c3nc12 [Compound 40],-13.7%,5.58%,25.2%,427%,433%,14.1 µM,,,
COc1ccc(Cl)cc1NC(=O)CC(=O)Nc1cc(Cl)ccc1OC [Compound 41],8.75%,9.71%,34.1%,453%,457%,14.1 µM,,,
COc1cc(/C=C/CN2CCN(Cc3ccc(C)o3)C(CCO)C2)ccc1O (stereo not shown) [Compound 42],20.1%,0%,32.1%,481%,485%,14.1 µM,,,
O=C(Cn1cccc1C(=O)c1ccccc1)NCCCc1ccccc1 [Compound 43],13.7%,43.9%,94.3%,131%,148%,3.98 µM,,,
CC(=O)Nc1ccc(N(C(=O)c2cnccn2)C(C(=O)NC2CCCCC2)c2ccc(F)cc2)cc1 (stereo not shown) [Compound 44],-13.5%,-18.8%,38.1%,308%,311%,11.2 µM,,,
CCOC(=O)C1=C(NC(=O)c2ccc(OC)c(S(=O)(=O)N3CCCCC3C)c2)Nc2ccccc2N=C1CC (stereo not shown) [Compound 45],-16.6%,0.0514%,18.6%,414%,420%,14.1 µM,,47,414%
COc1ccc(N2CCCC2)c(NC(=O)c2ccc([N+](=O)[O-])o2)c1 [Compound 46],-29.7%,4.44%,77.6%,156%,196%,7.94 µM,,,
CC(=O)Nc1ccc(NC(=O)[C@@H](NC(=O)c2cccc(C)c2)C(C)C)cc1 [Compound 47],17.2%,32.2%,97.3%,142%,154%,5.62 µM,,,
O=C(O)c1cc(/N=C/c2c(O)oc3ccccc3c2=O)ccc1O [Compound 48],-32%,-23.3%,76.6%,165%,179%,7.08 µM,,,
